Patent US20030162759A1, “Aldosterone blocker therapy to prevent or treat inflammation-related disorders” (priority 2000, published 2003)
Several values for one entry are separate records, joined by “and”; a condition that tells them apart may be missing. Equal values may be shown once.

Experiments:
[1] = tested on: Transforming growth factor beta 1; assay: Assay C: TGF beta 1 mRNA in left ventricle (TaqMan); assay type: in vivo, rat; details: for TGF-β, Mean: group mean; for TGF-β: individual rats
Protocol: The procedure of Assay B was expanded upon in a further study. […] Myocardial tissue from animals in each treatment group was examined after 7, 14, or 30 days of treatment.
Potassium chloride supplementation was added to the saline solution in order to prevent the potential hypokalemia associated with aldosterone excess.
At the time of the surgery, an Alzet 2002 osmotic minipump (Alza Corp., Palo Alto, Calif.) containing either vehicle (9% ethanol/87% propylene glycol/4% dH2O) or 1.0 mg/mL d-aldosterone (Sigma Chemical, St. Louis, Mo.) was inserted subcutaneously at the nape of the neck. Aldosterone was administered at a dose of 0.75 g/hour. […] Animals were sacrificed from each group (n=8-13) after 7, 14, or 30 days of treatment.
Following exsanguination, hearts and kidneys were isolated, removed, rinsed in cold phosphate-buffered saline, and blotted dry. Kidneys were immediately bifurcated through the long axis with a razor blade and placed in 10% neutral buffered formalin (NBF, Richard-Allen Scientific, Kalamazoo, Mich.). For the hearts, the right ventricle (RV) was cut away from the left ventricle (LV), both ventricles were weighed using a Mettler AE163 balance (Mettler-Toledo, Inc., Hightstown, N.J.), and the RV was placed in 10% NBF. A 2 mm coronal slab of the LV apex was removed and frozen with dry ice/isopentane for analysis of gene expression and the remaining portion of the LV was placed in 10% NBF for fixation. Final wet trimming was completed after 3-4 days fixation where a second 2 mm coronal slab was removed for hydroxyproline analysis and a third 2 mm slab was removed from the equatorial region for histology.
The fluorogenic 5′-nuclease assay (TaqMan PCR) using Applied Biosystems' 7700 Sequence Detection System (Applied Biosystems, Foster City, Calif.) allowed for real time detection/quantitation of a specific gene by monitoring the increase in fluorescence of a gene-specific, dye-labeled oligonucleotide probe. Probes for target and reference genes were labeled at the 5′-end with a 6-carboxyfluorescein (6FAM) reporter dye and at the 3′-end with a 6-carboxy-N,N,N′,N′-tetramethylrhodamine (TAMRA) quencher dye. When the probe was annealed to the target gene, fluorescence of 6FAM was prevented by the close proximity of TAMRA. The exonuclease activity of Taq polymerase released the dyes from the oligonucleotide probe by displacing the probe from the target sequence resulting in fluorescence excitation in direct proportion to the amount of target message present. Data analysis was performed using the Sequence Detection System software from Applied Biosystems.
Primers and probes were designed using Oligo Primer Analysis Software, Version 5.0 (National Biosciences Inc. (NBI)-Wojciech Rychlik, Cascade, Colo.). Primers were synthesized by Life Technologies (Grand Island, N.Y.) and probes were synthesized by Applied Biosystems. Primer/probe sets were designed from known sequences of rat genes to be analyzed. All target gene values were normalized to a reference gene, constitutively expressed cyclophilin. Primer/probe sets sequences can be found in Table 8
RNA was extracted from frozen (−70° C.) left ventricle (LV) tissue (approximately 10-20 mg) using 1.5 mL RNA-STAT 60 according to manufacturer's instructions (Leedo Medical Laboratories, Inc., Houston, Tex.). Briefly, tissues were homogenized using a tissue homogenizer equipped with a 5 mm probe (Ultra-Turrax T8 Homogenizer, IKA Works, Inc. Wilmington, N.C.). Following homogenization, an equal volume of molecular grade chloroform (Sigma Chemical Co., St. Louis, Mo.) was incubated with periodic mixing for 10 min at room temperature. Samples were centrifuged at 12,000 g for 10 min and RNA was precipitated from the top layer by adding an equal volume of molecular grade isopropanol (Sigma Chemical Co.) followed by an overnight incubation at −80° C.

[2] = tested on: aldosterone + salt treated rats; assay: Assay C further aldosterone infusion study: radiotelemetrized systolic blood pressure; assay type: in vivo, rat
Text: Assay C: Further in vivo Aldosterone Infusion Study The procedure of Assay B was expanded upon in a further study. […] Myocardial tissue from animals in each treatment group was examined after 7, 14, or 30 days of treatment. […] Lesions were preceded by the expression and progressive upregulation of proinflammatory molecules. […] Male Sprague-Dawley rats, weighing 230 to 250 g, (Harlan Sprague-Dawley Industries, Indianapolis, Ind.) were housed in a room 12-hours light/12-hours dark daily cycle at an ambient temperature of 22±1° C. (n=96). Animals were allowed one week to adjust after arrival and had free access to TEKLAD 22/5 rodent diet (Harlan TEKLAD, Madison, Wis.) and tap water until the initiation of the experiment. Prior to surgery the animals were individually weighed and placed in one of the following groups: […] Potassium chloride supplementation was added to the saline solution in order to prevent the potential hypokalemia associated with aldosterone excess. […] Louis, Mo.) was inserted subcutaneously at the nape of the neck. Aldosterone was administered at a dose of […]. […] Animals were sacrificed from each group (n=8-13) after 7, 14, or 30 days of treatment. Animals to be sacrificed after 7 or 14 days of treatment were uninephrectomized and implanted with an Alzet minipump. Animals treated for 30 days were uninephrectomized, fitted for Alzet minipumps, and implanted with radio telemetry units (model#TA11PA-C40, Data Sciences Inc., St. Paul, Minn.) according to the following procedure. […] The surgery site was clipped, scrubbed with nolvasan, and sprayed with betadine. A rostral-caudal incision was made through the skin from the base of the rib cage to the pubic region using a #11 scalpel blade. A second incision was made through the muscles of the abdominal wall to expose the peritoneal cavity. […] Organs were carefully displaced with tissue retractors in order to expose the abdominal aorta. A 1.5 cm segment just rostral to the bifurcation of the abdominal aorta into the iliac arteries was cleared of excessive connective tissue and 4-0 silk was used to make an anchor adjacent to the aorta. A microvascular clip was then placed at both ends of the cleaned region to stop excessive blood flow. Using a bent, 21 gauge needle, the abdominal aorta was penetrated. The cannula of the radio telemetry unit was inserted and stabilized in the aorta using the 4-0 silk anchor. Organs were repositioned and the telemetry unit was placed over the organs. Using a non-interrupted suture pattern with 4-0 silk, the abdominal wall was closed, and the skin was subsequently closed using a 4-0 silk in an interrupted suture pattern. […] Post-operative care included monitoring the animals on a heating pad during recovery from anesthesia until sternal recumbency was reestablished. Radiotelemetrized arterial blood pressure was calculated with the […] Version 1.1-Gold software (Data Sciences International, St. Paul, Minn.). Data points were collected over a 24 hour period with the collection rate set for a 10 second reading every 5 min for each animal. The 24 hour period used was from 6:00 a.m. to 6:00 a.m.

## C[C@]12CCC(=O)C=C1CC[C@@H]1[C@@H]2[C@@H](O)C[C@]2(C=O)[C@@H](C(=O)CO)CC[C@@H]12 [aldosterone]
[1]; 30 days of treatment
  TGF-β, Mean: 1.33 AU
[1]; 7 days of treatment, listed as Aldosterone + salt
  TGF-β: 0.98 AU and 1.47 AU and 1.21 AU
[1]; 14 days of treatment, listed as Aldosterone + salt
  TGF-β: 0.55 AU and 1.27 AU and 0.56 AU
[1]; 30 days of treatment, listed as Aldosterone + salt
  TGF-β: 1.27 AU and 1.20 AU and 0.83 AU and 0.54 AU
[2]; Day 3, mean ± SEM of values every 5 min over 24-hour period
  Systolic Blood Pressure: 132 ± 6 mmHg
[2]; Day 5, mean ± SEM of values every 5 min over 24-hour period
  Systolic Blood Pressure: 137 ± 4 mmHg
[2]; Day 6, mean ± SEM of values every 5 min over 24-hour period
  Systolic Blood Pressure: 148 ± 5 mmHg
[2]; Day 7, mean ± SEM of values every 5 min over 24-hour period
  Systolic Blood Pressure: 155 ± 5 mmHg
[2]; Day 8, mean ± SEM of values every 5 min over 24-hour period
  Systolic Blood Pressure: 156 ± 4 mmHg
[2]; Day 9, mean ± SEM of values every 5 min over 24-hour period
  Systolic Blood Pressure: 164 ± 5 mmHg
[2]; Day 11, mean ± SEM of values every 5 min over 24-hour period
  Systolic Blood Pressure: 171 ± 6 mmHg
[2]; Day 12, mean ± SEM of values every 5 min over 24-hour period
  Systolic Blood Pressure: 178 ± 6 mmHg
[2]; Day 13, mean ± SEM of values every 5 min over 24-hour period
  Systolic Blood Pressure: 182 ± 6 mmHg
[2]; Day 15, mean ± SEM of values every 5 min over 24-hour period
  Systolic Blood Pressure: 181 ± 5 mmHg
[2]; Day 16, mean ± SEM of values every 5 min over 24-hour period
  Systolic Blood Pressure: 187 ± 6 mmHg
[2]; Day 17, mean ± SEM of values every 5 min over 24-hour period
  Systolic Blood Pressure: 195 ± 7 mmHg
[2]; Day 18, mean ± SEM of values every 5 min over 24-hour period
  Systolic Blood Pressure: 196 ± 6 mmHg
[2]; Day 19, mean ± SEM of values every 5 min over 24-hour period
  Systolic Blood Pressure: 200 ± 6 mmHg
[2]; Day 20, mean ± SEM of values every 5 min over 24-hour period
  Systolic Blood Pressure: 203 ± 5 mmHg
[2]; Day 21, mean ± SEM of values every 5 min over 24-hour period
  Systolic Blood Pressure: 208 ± 4 mmHg
[2]; Day 22, mean ± SEM of values every 5 min over 24-hour period
  Systolic Blood Pressure: 209 ± 4 mmHg
[2]; Day 23, mean ± SEM of values every 5 min over 24-hour period
  Systolic Blood Pressure: 208 ± 4 mmHg
[2]; Day 24, mean ± SEM of values every 5 min over 24-hour period
  Systolic Blood Pressure: 210 ± 3 mmHg
[2]; Day 25, mean ± SEM of values every 5 min over 24-hour period
  Systolic Blood Pressure: 210 ± 4 mmHg
[2]; Day 26, mean ± SEM of values every 5 min over 24-hour period
  Systolic Blood Pressure: 210 ± 3 mmHg
[2]; uninephrectomized Sprague-Dawley rats, 1% NaCl-0.3% KCl, aldosterone infusion, eplerenone 100 mg/kg/day, up to 30 days, listed as Aldosterone+salt
  Systolic Blood Pressure: progressive increase in blood pressure with time
[2]; uninephrectomized Sprague-Dawley rats, 1% NaCl-0.3% KCl, aldosterone infusion, eplerenone 100 mg/kg/day, up to 30 days, listed as Aldosterone/salt
  Systolic Blood Pressure: induced severe hypertension

## COC(=O)[C@@H]1CC2=CC(=O)CC[C@]2(C)[C@@]23O[C@@H]2C[C@@]2(C)[C@@H](CC[C@@]24CCC(=O)O4)[C@H]13 [eplerenone, Pregn-4-ene-7,21-dicarboxylic acid, 9,11-epoxy-17-hydroxy-3-oxo-, γ-lactone, methyl ester, (7α, 11α, 17β) -]
[1]; 7 days of treatment
  TGF-β, Mean: 0.99 AU
[1]; 14 days of treatment
  TGF-β, Mean: 1.26 AU
[1]; 30 days of treatment
  TGF-β, Mean: 1.32 AU
[1]; 7 days of treatment, listed as Eplerenone + aldosterone + salt
  TGF-β: 0.80 AU (2×) and 0.81 AU and 0.51 AU and 0.61 AU and 0.84 AU
[1]; 14 days of treatment, listed as Eplerenone + aldosterone + salt
  TGF-β: 0.58 AU and 0.62 AU and 1.04 AU and 0.71 AU and 1.21 AU and 2.41 AU
[1]; 30 days of treatment, listed as Eplerenone + aldosterone + salt
  TGF-β: 1.00 AU and 1.40 AU and 0.96 AU and 1.93 AU and 0.89 AU
[2]; uninephrectomized Sprague-Dawley rats, 1% NaCl-0.3% KCl, aldosterone infusion, eplerenone 100 mg/kg/day, up to 30 days
  Systolic Blood Pressure: significantly reduced
[2]; uninephrectomized Sprague-Dawley rats, 1% NaCl-0.3% KCl, aldosterone infusion, eplerenone 100 mg/kg/day, up to 30 days, listed as eplerenone+aldosterone+salt
  Systolic Blood Pressure: significantly reduced at days 8-30
